# Measurements reported in patent US10189836B2, “Therapeutic compounds, compositions and methods of use thereof” (Genentech, Inc., priority 2015, dated 2019).
# Like-named read-outs stand apart in the source and are kept apart here.
# Tests used:
# [1] = target: isolated recombinant JAK1 kinase domain (Homo sapiens (Human), UniProt P23458); test: JAK1 enzyme assay (Caliper LabChip, Ki); format: biochemical
# [2] = target: isolated recombinant JAK2 kinase domain (Homo sapiens (Human), UniProt O60674); test: JAK2 enzyme assay (Caliper LabChip, Ki); format: biochemical
# [3] = isolated recombinant JAK1 kinase domain, 1.5 nM enzyme, ATP 25 μM
# [4] = isolated recombinant JAK2 kinase domain, 0.2 nM enzyme, ATP 25 μM
# Sequence of isolated recombinant JAK2 kinase domain (O60674 849-1124): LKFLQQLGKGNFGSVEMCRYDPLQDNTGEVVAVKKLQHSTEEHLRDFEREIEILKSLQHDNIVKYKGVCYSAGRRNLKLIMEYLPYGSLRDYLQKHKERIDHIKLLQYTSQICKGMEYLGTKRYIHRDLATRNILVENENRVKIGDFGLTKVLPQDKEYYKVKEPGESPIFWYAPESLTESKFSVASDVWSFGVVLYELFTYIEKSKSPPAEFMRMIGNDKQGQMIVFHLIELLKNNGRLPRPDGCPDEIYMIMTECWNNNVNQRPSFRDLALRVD
# Sequence of isolated recombinant JAK1 kinase domain (P23458 875-1153): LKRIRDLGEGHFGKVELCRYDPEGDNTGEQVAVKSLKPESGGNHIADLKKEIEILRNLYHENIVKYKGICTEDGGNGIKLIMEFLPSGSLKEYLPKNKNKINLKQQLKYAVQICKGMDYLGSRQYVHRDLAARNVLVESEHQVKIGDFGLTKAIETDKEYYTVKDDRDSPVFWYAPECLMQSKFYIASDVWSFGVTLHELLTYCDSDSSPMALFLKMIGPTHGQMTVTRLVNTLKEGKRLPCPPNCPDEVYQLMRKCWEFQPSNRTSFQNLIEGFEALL
Compound,"Ki [1, 3]","Ki [2, 4]",Ki [1],Ki [2]
"CN1CCN(C(=O)Cn2cc(Nc3nc4c(N5C[C@H]6CC[C@@H](C5)[C@H]6OCc5ccccc5)cccn4n3)cn2)CC1 [Example 1, 2-[4-[[8-[(1S,5R)-8-benzyloxy-3-azabicyclo[3.2.1]octan-3-yl]-[1,2,4]triazolo[1,5-a]pyridin-2-yl]amino]pyrazol-1-yl]-1-(4-methylpiperazin-1-yl)ethanone]",0.2 nM,0.6 nM,–,–
"CN1CCN(C(=O)Cn2cc(Nc3nc4c(N5CC6CCC(C5)N6C(=O)N5CC(C(F)(F)F)C5)cccn4n3)cn2)CC1 [Example 2, 1-(4-methylpiperazin-1-yl)-2-[4-[[8-[8-[3-(trifluoromethyl)azetidine-1-carbonyl]-3,8-diazabicyclo[3.2.1]octan-3-yl]-[1,2,4]triazolo[1,5-a]pyridin-2-yl]amino]pyrazol-1-yl]ethanone]",0.5 nM,0.4 nM,–,–
"CN1CCN(C(=O)Cn2cc(Nc3nc4c(N5CC6CCC(C5)N6C(=O)C5CSC5)cccn4n3)cn2)CC1 [Example 3, 1-(4-methylpiperazin-1-yl)-2-[4-[[8-[8-(thietane-3-carbonyl)-3,8-diazabicyclo[3.2.1]octan-3-yl]-[1,2,4]triazolo[1,5-a]pyridin-2-yl]amino]pyrazol-1-yl]ethanone]",0.5 nM,0.6 nM,–,–
"CN1CCN(C(=O)Cn2cc(Nc3nc4c(N5CC6CCCC(C5)N6C(=O)CCC(F)(F)F)cccn4n3)cn2)CC1 [Example 4, 4,4,4-trifluoro-1-[3-[2-[[1-[2-(4-methylpiperazin-1-yl)-2-oxo-ethyl]pyrazol-4-yl]amino]-[1,2,4]triazolo[1,5-a]pyridin-8-yl]-3,9-diazabicyclo[3.3.1]nonan-9-yl]butan-1-one]",0.5 nM,0.8 nM,–,–
"CN1CCN(C(=O)Cn2cc(Nc3nc4c(N5CC6CCC(C5)N6C(=O)CCC(F)(F)F)cccn4n3)cn2)CC1 [Example 5, 4,4,4-trifluoro-1-[3-[2-[[1-[2-(4-methylpiperazin-1-yl)-2-oxo-ethyl]pyrazol-4-yl]amino]-[1,2,4]triazolo[1,5-a]pyridin-8-yl]-3,8-diazabicyclo[3.2.1]octan-8-yl]butan-1-one]",0.6 nM,1.2 nM,–,–
"CN1CCN(C(=O)Cn2cc(Nc3nc4c(N5CC6CCC(C5)N6C(=O)[C@H]5C[C@H](C(F)(F)F)C5)cccn4n3)cn2)CC1 [Example 6, formic acid; 1-(4-methylpiperazin-1-yl)-2-[4-[[8-[8-[3-(trifluoromethyl)cyclobutanecarbonyl]-3,8-diazabicyclo[3.2.1]octan-3-yl]-[1,2,4]triazolo[1,5-a]pyridin-2-yl]amino]pyrazol-1-yl]ethanone]",0.7 nM,0.6 nM,–,–
"CN1CCN(C(=O)Cn2cc(Nc3nc4c(C5=CC6CCC(C5)N6C(=O)OCC(F)(F)F)cccn4n3)cn2)CC1 (stereo not shown) [Example 7, 2,2,2-trifluoroethyl 3-[2-[[1-[2-(4-methylpiperazin-1-yl)-2-oxo-ethyl]pyrazol-4-yl]amino]-[1,2,4]triazolo[1,5-a]pyridin-8-yl]-8-azabicyclo[3.2.1]oct-3-ene-8-carboxylate]",–,–,0.7 nM,0.7 nM
"CN1CCN(C(=O)Cn2cc(Nc3nc4c(N5CC6COCC(C5)N6C(=O)CCC(F)(F)F)cccn4n3)cn2)CC1 [Example 130, 4,4,4-trifluoro-1-[7-[2-[[1-[2-(4-methylpiperazin-1-yl)-2-oxo-ethyl]pyrazol-4-yl]amino]-[1,2,4]triazolo[1,5-a]pyridin-8-yl]-3-oxa-7,9-diazabicyclo[3.3.1]nonan-9-yl]butan-1-one]",–,26.6 nM,–,–
"CN1CCN(C(=O)Cn2cc(Nc3nc4c(N5CC6CCC(C5)N6C(=O)C5(C#N)CCCC5)cccn4n3)cn2)CC1 [Example 155, 1-[3-[2-[[1-[2-(4-methylpiperazin-1-yl)-2-oxo-ethyl]pyrazol-4-yl]amino]-[1,2,4]triazolo[1,5-a]pyridin-8-yl]-3,8-diazabicyclo[3.2.1]octane-8-carbonyl]cyclopentane-carbonitrile]",–,21 nM,–,–
